Assay results reported in the NIST ThermoML archive (doi:10.1021/je900219w).
Numbers after ± are expanded uncertainties.

Key:
[1] = 101 kPa, Liquid; for viscosity: Capillary tube (Ostwald / Ubbelohde) method; for molar volume: Pycnometric method
[2] = xn = mol fraction of the nth substance listed; settings: 101 kPa, Liquid; for viscosity: Capillary tube (Ostwald / Ubbelohde) method; for molar volume: Pycnometric method

CCCCCCO [hexan-1-ol]
[1]
Settings	molar volume [m3/mol]	viscosity [mPa·s]
303.15 K	0.0001259 ± 1.5e-07	3.829 ± 0.048
313.15 K	0.000127 ± 1.5e-07	2.879 ± 0.036
323.15 K	0.0001281 ± 1.6e-07	2.215 ± 0.028

CCCCCCO [hexan-1-ol] + Cc1cccc(C)c1
[2], x1 = 1
Settings	molar volume [m3/mol]	viscosity [mPa·s]
303.15 K	0.0001259 ± 1.5e-07	3.829 ± 0.048
313.15 K	0.000127 ± 1.5e-07	2.879 ± 0.036
323.15 K	0.0001281 ± 1.6e-07	2.215 ± 0.028

Cc1cccc(C)c1 [1,3-dimethylbenzene] + CCCCCCO
[2]
Settings	molar volume, 303.15 K [m3/mol]	molar volume, 313.15 K [m3/mol]	molar volume, 323.15 K [m3/mol]	viscosity, 303.15 K [mPa·s]	viscosity, 313.15 K [mPa·s]	viscosity, 323.15 K [mPa·s]
x2 = 0	0.0001241 ± 1.5e-07	0.0001254 ± 1.5e-07	0.0001266 ± 1.6e-07	0.5501 ± 0.0073	0.4944 ± 0.0067	0.4472 ± 0.0061
x2 = 0.1	0.0001243 ± 1.5e-07	0.0001256 ± 1.5e-07	0.0001269 ± 1.6e-07	0.5979 ± 0.0079	0.5309 ± 0.0071	0.4743 ± 0.0064
x2 = 0.2	0.0001246 ± 1.5e-07	0.0001258 ± 1.5e-07	0.0001272 ± 1.6e-07	0.6825 ± 0.009	0.5975 ± 0.0079	0.5277 ± 0.0071
x2 = 0.3	0.0001248 ± 1.5e-07	0.000126 ± 1.5e-07	0.0001273 ± 1.6e-07	0.7998 ± 0.01	0.6894 ± 0.0091	0.6009 ± 0.008
x2 = 0.4	0.0001249 ± 1.5e-07	0.0001262 ± 1.5e-07	0.0001275 ± 1.6e-07	0.9537 ± 0.012	0.8068 ± 0.01	0.6925 ± 0.0091
x2 = 0.5	0.0001251 ± 1.5e-07	0.0001263 ± 1.5e-07	0.0001276 ± 1.6e-07	1.161 ± 0.015	0.9645 ± 0.013	0.8141 ± 0.011
x2 = 0.6	0.0001253 ± 1.5e-07	0.0001265 ± 1.5e-07	0.0001277 ± 1.6e-07	1.442 ± 0.018	1.173 ± 0.015	0.97 ± 0.013
x2 = 0.7	0.0001254 ± 1.5e-07	0.0001266 ± 1.5e-07	0.0001278 ± 1.6e-07	1.833 ± 0.023	1.457 ± 0.019	1.179 ± 0.015
x2 = 0.8	0.0001255 ± 1.5e-07	0.0001267 ± 1.5e-07	0.0001279 ± 1.6e-07	2.357 ± 0.03	1.833 ± 0.023	1.448 ± 0.019
x2 = 0.9	0.0001257 ± 1.5e-07	0.0001269 ± 1.5e-07	0.000128 ± 1.6e-07	3.032 ± 0.038	2.309 ± 0.029	1.797 ± 0.023

Cc1cccc(C)c1 [1,3-dimethylbenzene]
[1]
Settings	molar volume [m3/mol]	viscosity [mPa·s]
303.15 K	0.0001241 ± 1.5e-07	0.5501 ± 0.0073
313.15 K	0.0001254 ± 1.5e-07	0.4944 ± 0.0067
323.15 K	0.0001266 ± 1.6e-07	0.4472 ± 0.0061
